Columns and labels:
α-glucosidase = biological target: α-glucosidase; set-up: method as in PMID 16387392, doi:10.1016/j.kjs.2024.100312; details: literature values for comparison; read-out: α-glucosidase inhibitory activity IC50; cited from earlier work
yeast α-glucosidase = biological target: T1, yeast α-glucosidase (Saccharomyces cerevisiae, UniProt P53341); assay: Inhibition of yeast α-glucosidase (p-nitrophenyl-α-D-glucopyranoside substrate, OD 405 nm); type: biochemical; details: for D.O. 405 nm / Inhibition (%): mean ± SEM; for IC50: mean ± standard error of the mean, n = 3-5, read-out: Yeast α-glucosidase inhibition, half-maximal inhibitory concentration (IC50)
T1 construct: purchased Sigma Aldrich G5003-100UN
T1 sequence (P53341 whole entry): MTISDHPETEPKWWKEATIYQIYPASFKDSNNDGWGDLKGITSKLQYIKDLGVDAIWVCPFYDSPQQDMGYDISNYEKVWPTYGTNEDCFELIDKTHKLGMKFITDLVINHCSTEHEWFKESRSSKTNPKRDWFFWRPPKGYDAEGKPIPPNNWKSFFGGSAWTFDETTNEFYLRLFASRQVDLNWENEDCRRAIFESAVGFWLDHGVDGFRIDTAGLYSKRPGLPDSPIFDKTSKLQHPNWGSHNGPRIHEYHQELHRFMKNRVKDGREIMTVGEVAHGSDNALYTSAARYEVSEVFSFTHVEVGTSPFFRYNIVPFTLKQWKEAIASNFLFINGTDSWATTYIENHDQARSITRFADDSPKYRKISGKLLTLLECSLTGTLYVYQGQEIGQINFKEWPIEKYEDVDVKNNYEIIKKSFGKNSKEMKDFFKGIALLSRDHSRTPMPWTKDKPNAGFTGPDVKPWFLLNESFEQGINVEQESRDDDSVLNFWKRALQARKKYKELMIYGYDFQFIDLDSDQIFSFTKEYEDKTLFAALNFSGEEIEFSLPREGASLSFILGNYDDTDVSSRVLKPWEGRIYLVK
Protocol: The inhibition of α-glucosidase was evaluated using a previously adapted method. Briefly, a solution (25 µL) of tested samples in DMSO-H2O 1:1 was added to 150 µL of phosphate buffer (PBS, 67 mM, pH 6.8) and incubated at 37 °C for 10 min with 25 µL of reduced glutatione (3 mM in PBS) and 25 µL of α-glucosidase type I solution (0.2 U/mL in PBS, CAS G5003-100UN) (Sigma Aldrich, Toluca, Estado de México, Mexico). Subsequently, 25 µL of the substrate solution (23.2 mM p-nitrophenyl-α-D-glucopyranoside, CAS N1377-1G, in PBS) (Sigma Aldrich, Toluca, Estado de México, Mexico) was added, and the mixture was incubated at 37 °C for 15 min under shaking. The reaction mixture was stopped by the addition of a […] 1M solution (50 µL), followed by agitation for 5 min. […] The percentage of inhibition was calculated according to the following equation:Inhibition (%) = [(Acontrol − Asample)/Acontrol] × 100 where A is the absorbance at 405 nm of the sample and the control.
Table S5. Inhibition of yeast α-glucosidase. Determination of half-maximal inhibitory concentration […]
Values represent the mean of three to five independent experiments ± standard error of the mean.
Data were examined by analysis of variance (ANOVA) followed by Dunnett's test to determine groups with significant differences. Values of p ≤0.05 (*) and p ≤ 0.01 (**) were considered significant differences from the control.

[1] = system: PC-3 prostate cancer cells; assay: Sulforhodamine B antiproliferative assay, PC-3; type: cell-based; details: PC-3, 10 µM, vehicle DMSO, 48 h, NA: no activity
Protocol: (§1) Antiproliferative activity was evaluated by Sulforhodamine B assay against colon cancer (HCT-15), breast cancer (MCF-7), leukaemia ([…]), central nervous system glial (U-251), and prostate cancer (PC-3) cell lines, which the National Cancer Institute supplied. The cell lines were cultured in RPMI-1640 medium supplemented with 10% fetal bovine serum, 2 mM L-glutamine, […] penicillin G, 100 µg/mL streptomycin sulfate, and 0.25 µg/mL amphotericin B Gibco (Thermo Fisher Scientific, Grand Island, NY, USA). They were incubated at 37 °C in an atmosphere of 5% CO2 and 95% humidity. For the assay, cells were suspended in a 0.1% trypsin-EDTA solution (Gibco). Cell viability was counted using a hematocytometer and diluted with medium to achieve the following densities: 5 × 10^4 cells/mL (SKLU-1, K562) and 7.5 × 10^4 cells/mL (U251, PC-3). […]
(§2) After 24 h, the cells were treated with 100 µL of the compounds to be evaluated, previously dissolved in RPMI-1640 medium and 1% DMSO, and then incubated for 48 h at 37 °C in a 5% CO2 atmosphere. […]
(§3) After 48 h, the adherent cells were fixed by adding 50 µL of a cold 50% (m/vol) […] solution and incubated at 4 °C for 60 min. […] The optical density of the treated samples was determined in a Bio Kinetics microplate reader at a wavelength of 515 nm (Synergy HT, BioTek, Winooski, VT, USA). […]

[2] = system: MCF-7 breast cancer cells; assay: Sulforhodamine B antiproliferative assay, MCF-7; type: cell-based; details: MCF-7, 10 µM, vehicle DMSO, 48 h, NA: no activity
Protocol: as §1, §2, §3

SKLU-1 lung cancer cells = assay: Sulforhodamine B antiproliferative assay, SKLU-1; type: cell-based; details: SKLU-1, 10 µM, vehicle DMSO, 48 h, NA: no activity
Protocol: as §1, §2, §3

[3] = system: COS-7 monkey kidney fibroblast; assay: Sulforhodamine B assay, COS7 healthy cells; type: cell-based; details: 10 µM, vehicle DMSO, 48 h
[4] = Solubility in polar solvents (observation); type: physicochemical
[5] = system: HCT-15 colon cancer cells; assay: Sulforhodamine B antiproliferative assay, HCT-15; type: cell-based; details: HCT-15, 10 µM, vehicle DMSO, 48 h, NA: no activity
Protocol: as §1, §2, §3

SMILES	IC50 (α-glucosidase) [µM]	inhibition at 10 µM (yeast α-glucosidase) [%]	inhibition at 100 µM (yeast α-glucosidase) [%]	D.O. 405 nm (yeast α-glucosidase; 1 µM)	D.O. 405 nm (yeast α-glucosidase; 10 µM)	D.O. 405 nm (yeast α-glucosidase; 100 µM)	inhibition at 17.78 µM (yeast α-glucosidase) [%]	inhibition at 31.62 µM (yeast α-glucosidase) [%]	inhibition at 56.23 µM (yeast α-glucosidase) [%]	D.O. 405 nm (yeast α-glucosidase; 17.78 µM)	D.O. 405 nm (yeast α-glucosidase; 31.62 µM)	D.O. 405 nm (yeast α-glucosidase; 56.23 µM)	IC50 (yeast α-glucosidase) [µM]	Cellular growth inhibition (%) [3] [%]	Solubility in polar solvents (in words) [4]	other results
O=C(/C=C/c1ccc(O)cc1)CC(=O)/C=C/c1ccc(O)cc1 [bisdemetoxicurcumin]	90.6	–	–	–	–	–	–	–	–	–	–	–	–	–	–	–
OC[C@H]1O[C@@H]2O[C@H]3[C@H](O)[C@@H](O)[C@@H](O[C@H]4[C@H](O)[C@@H](O)[C@@H](O[C@H]5[C@H](O)[C@@H](O)[C@@H](O[C@H]6[C@H](O)[C@@H](O)[C@@H](O[C@H]7[C@H](O)[C@@H](O)[C@@H](O[C@H]8[C@H](O)[C@@H](O)[C@@H](O[C@H]1[C@H](O)[C@H]2O)O[C@@H]8CO)O[C@@H]7CO)O[C@@H]6CO)O[C@@H]5CO)O[C@@H]4CO)O[C@@H]3CO [BCD, β-cyclodextrin]	–	1.11 ± 4.12	2.31 ± 3.94	1.275±0.028	1.261±0.022	1.246±0.019	–	–	–	–	–	–	–	–	–	inhibition at 1 µM (yeast α-glucosidase): 0.2 ± 3.02%
COc1cc(/C=C/C(O)=C/C(=O)/C=C/c2ccc(O)cc2)ccc1O [demetoxicurcumin]	82.4	–	–	–	–	–	–	–	–	–	–	–	–	–	–	–
O=c1c(O)c(-c2ccc(O)c(O)c2)oc2cc(O)cc(O)c12 [Quercetin, quercetin, reference compound]	–	16.2 ± 2.95	–	–	1.142±0.064	–	36.9 ± 1.16	59.1 ± 0.88	72.2 ± 1.55	0.861±0.044	0.556±0.019	0.376±0.016	–	–	–	inhibition at 5.62 µM (yeast α-glucosidase): 6.31 ± 2.5%; D.O. 405 nm (yeast α-glucosidase; 5.62 µM): 1.276±0.063
O=C(C=CC=Cc1ccccc1)C=C([O-])C=CC=Cc1ccccc1.O=C(C=CC=Cc1ccccc1)C=C([O-])C=CC=Cc1ccccc1.[Cu+2] [Compound 3]	–	–	–	1.314±0.041	1.226±0.025	1.071±0.044	–	–	–	–	–	–	> 100	15.49	poor solubility	α-glucosidase inhibitory activity (in words) (yeast α-glucosidase): no inhibition activity at high concentrations; Inhibition (%) (yeast α-glucosidase; 1 µM): -2.68±1.55%; Inhibition (%) (yeast α-glucosidase; 10 µM): 4.11±1.43%; Inhibition (%) (yeast α-glucosidase; 100 µM): 16.19 ± 3.18%; Cellular growth inhibition (%) [1]: 1.95%; Cellular growth inhibition (%) [2]: 12.35%; Cellular growth inhibition (%) (SKLU-1 lung cancer cells): 0.58%; Cellular growth inhibition (%) [5]: 12.04%
O=C(/C=C(O)/C=C/C=C/c1ccccc1)/C=C/C=C/c1ccccc1 [Compound 2]	–	7.61 ± 2.8	86.9 ± 7.53	–	1.205±0.051	0.174±0.105	16.9 ± 3.75	31.6 ± 6.86	66.3 ± 10.2	1.084±0.067	0.894±0.105	0.446±0.147	45.6	7.35	poor solubility	inhibition at 10 µM ([1]; read-out: Cellular growth inhibition (%)): 11.8%; inhibition at 10 µM ([2]; Homo sapiens, MCF7, read-out: Cellular growth inhibition (%)): 11.5%; inhibition at 10 µM (SKLU-1 lung cancer cells; Homo sapiens, SK-LU-1, read-out: Cellular growth inhibition (%)): 7.45%; inhibition at 10 µM ([5]; Homo sapiens, read-out: Cellular growth inhibition (%)): 15.9%
